Here are results for 19 compounds from patent US11666561B2, “Compounds for use in regulating follicle maturation” (AARHUS UNIVERSITET, priority 2017, dated 2023).

Entries after “also recorded” stand apart in the source; their conditions may differ.

For the data set, the system named is primordial-to-primary follicle transition. Nature of the data set: In vitro organ culture of mouse ovaries with compound, H&E histology and counting of primordial, primary and secondary follicles. The settings on record: for effect on primordial-to-primary follicle transition / primordial follicle activation: in vitro cultured mouse ovaries, concentration not given. As for the experimental part: Ovaries obtained from mice were washed twice with culture medium. Antagonists or agonists to be tested were dissolved in suitable solvents and added to the medium. As a control medium comprising solvent without the antagonist or agonist was used. One of the ovaries was cultured in a control medium and another was cultured with the antagonist or agonist. The tested antagonists or agonists and their concentrations are outlined in table 2.
Ovaries were incubated with antagonist at 37° C. and 5% CO2 for 24 and 96 hours, respectively (see table 3).
Cultures ovaries were fixed, embedded in paraffin and sliced microscopy. The sectioned ovaries were stained with hematoxylin and eosin (H&E) to visualize the morphology of the ovary by microscopy.
The number of primordial, primary and secondary follicles was determined, and it was determined whether the antagonist or agonist was capable of regulating folliculogenesis.
C57BL/6j×CBA F1 hybrid mice (Janvier Labs, France) were housed and bred in the animal facilities at Department of Biomedicine, Aarhus University. Animals were housed in a 12:12 h controlled light-dark environment and were provided with food and water ad libitum. 7-day-old female pups were used for the study.
Pups were sacrificed and ovaries were excised. Using a stereomicroscope MZ75 (Leica Microsystems, Germany), excess tissue was removed. During the dissection, ovaries were kept at 37° C. in culture medium: aMEM (Thermo Fisher) supplemented with 10% FBS (Thermo Fisher), 100 mIU/mL of FSH (Sigma-Aldrich), 100 IU/mL penicillin (Thermo Fisher), 100 μg/mL streptomycin (Thermo Fisher) and 1% Insulin-Transferrin-Selenium (Thermo Fisher). Isolated ovaries were transferred into well inserts (PET membrane ThinCert, 0.4 μm-pore size; Greiner bio-one) in 24-well plates (Tissue culture treated, cell culture plates; Costar). 200-300 μL of culture medium was added to the well below the insert and up to two ovaries were placed on the membrane of each insert. The culture medium was supplemented with different concentrations of the tested compounds; bpV(HOpic) (Sigma-Aldrich), Temsirolimus (Sigma-Aldrich), Ketotifen (Sigma-Aldrich), 3PO (Sigma-Aldrich), Dorsomorphin (Sigma-Aldrich), AICAR (Sigma-Aldrich), NCG (Sigma-Aldrich), and Dyphylline (Cayman Chemical). Up to six wells in the 24-well plate were used for inserts. Sterile dH2O was added to the rest of the wells to ensure humidity and reduce evaporation. The ovaries were cultured at 37° C., 5% CO2 for four days. 150 μL of medium was replaced every other day with fresh culture medium.
Ovaries kept in organ culture for four days were fixed for 24 hours in 4% paraformaldehyde solution at 4° C. After fixation, ovaries were dehydrated in ethanol series using 70%, 96% and 99.9% ethanol. Xylene was used as clearing agent before the ovaries were infiltrated in paraffin wax. 5 μm-sections of samples in paraffin were cut using a microtome (Cut 6062, SLEE medical, Germany). Paraffin sections were mounted on glass slides, paraffin was melted at 60° C., and the samples were stained with hematoxylin and eosin (using standard protocols).
The samples were deparaffinized by incubating in xylene for 2×15 min. and subsequently rehydrated in series of ethanol; 3×2 min. in 99.9% ethanol, 2 min. in 96% ethanol, and 2 min. in 70% ethanol. The samples were then rinsed in dH2O, stained in hematoxylin for 40 sec., rinsed in dH2O for 5 min., and stained in eosin for 46 sec. The samples were dehydrated in ethanol: 2×2 min. in 96% ethanol, 2×2 min in 99.9% ethanol, and finally cleared up in xylene for at least 30 min before mounting the samples using Eukitt mounting medium (Sigma-Aldrich) and cover glass.
The number of follicles at each developmental stage was counted using an inverted research microscope (DM14000B, Leica Microsystems, Germany). The follicles of every 3rd to 4th section of each ovary were counted and the distribution of follicles in the different stages in percentage was determined.

Where [1] appears, read: 30 μM 3PO, ovaries cultured four days, only healthy follicles counted.
[2] abbreviates: Table 1, effect with a figure cited.
Where [3] appears, read: Table 2, effect with a figure cited.

For the compound `CCCCNC(=O)NS(=O)(=O)c1ccc(C)cc1` [Tolbutamide, 1-butyl-3-(4-methylphenyl)sulfonylurea], the Effect entry by setting is: (Table 1, marked (ongoing)) “promotes”; (Table 2, marked (ongoing)) “promotes”.
On to “PDGF-AA: peptide, expressed in E coli, SEQ ID NO: 1, binds and activates PDGFRA”, for which the Effect entry runs as follows: (Table 1, marked (ongoing)) “promotes”; (Table 2, marked (ongoing)) “promotes”.
As for `O=C1CCc2cc(OCCCCc3nnnn3C3CCCCC3)ccc2N1` [Cilostazol, 6-[4-(1-cyclohexyltetrazol-5-yl)butoxy]-3,4-dihydro-1H-quinolin-2-one], the Effect result is recorded as “promotes” (Table 1, marked (ongoing)) and “promotes” (Table 2, marked (ongoing)).
Turning to `O=C(C=Cc1cccnc1)c1ccncc1` [3PO, 3-(3-pyridinyl)-1-(4-pyridinyl)-2-propen-1-one], the “effect on primordial-to-primary follicle transition / primordial follicle activation” value is “promote primordial-to-primary transition”. Under setting [1], the primary follicles is given as 26.60±11.24%, the primordial follicles stood at 63.11±8.83% and the secondary follicles came to 11.58±9.07%. The “health of follicles in treated ovaries” value (3PO treated ovaries) is reported as “several of the follicles seemed atretic”. For the same compound, the Effect result under setting [2] was “promotes”. For the same compound, under setting [3], the Effect result is “promotes”.
Turning to `Cn1c(=O)c2[nH]cnc2n(C)c1=O` [Theophylline, 1,3-dimethyl-7H-purine-2,6-dione], the Effect entry is, setting by setting: (Table 1, marked (ongoing)) “promotes”; (Table 2, marked (ongoing)) “promotes”.
In the case of `Cc1nccc2[nH]c(=O)ccc12` [Medorinone, 5-methyl-1H-1,6-naphthyridin-2-one], the Effect result (Table 1, marked (ongoing)) was “promotes” and the Effect entry (Table 2, marked (ongoing)) is reported as “promotes”.
With `C[C@H]1Cc2ccccc2N1C(=O)Cc1nc(N2CCOCC2)cc(=O)[nH]1` [SAR260301, (S)-2-(2-(2-Methylindolin-1-yl)-2-oxoethyl)-6-morpholinopyrimidin-4(3H)-one], the Effect result is “promotes” (Table 1, marked (ongoing)) and “promotes” (Table 2, marked (ongoing)).
Consider `Cc1cn(-c2cc(NC(=O)c3ccc(C)c(Nc4nccc(-c5cccnc5)n4)c3)cc(C(F)(F)F)c2)cn1` [Pirotinib, 4-methyl-N-[3-(4-methylimidazol-1-yl)-5-(trifluoromethyl)phenyl]-3-[(4-pyridin-3-ylpyrimidin-2-yl)amino]benzamide], for which the Effect result (Table 1, marked (ongoing)) is “promotes” and the Effect entry (Table 2, marked (ongoing)) is “promotes”.
Regarding `CCOc1cc2ncc(C#N)c(Nc3ccc(F)c(Cl)c3)c2cc1NC(=O)/C=C/CN(C)C` [Pelitinib, (E)-N-[4-(3-chloro-4-fluoroanilino)-3-cyano-7-ethoxyquinolin-6-yl]-4-(dimethylamino)but-2-enamide], the Effect entry reads like this: (Table 1, marked (ongoing)) “promotes”; (Table 2, marked (ongoing)) “promotes”.
For the compound `c1ccc2c(CCNc3ccc(Nc4ccncc4)cc3)c[nH]c2c1` [Serdemetan, 1-N-[2-(1H-indol-3-yl)ethyl]-4-N-pyridin-4-ylbenzene-1,4-diamine], the Effect result is recorded as “promotes” (Table 1, marked (ongoing)) and “promotes” (Table 2, marked (ongoing)).
Consider `NC(=O)c1ncn([C@@H]2O[C@H](CO)[C@@H](O)[C@H]2O)c1N` [AICAR, 5-aminoimidazole-4-carboxamide-1β-D-ribofuranoside], for which the “effect on primordial-to-primary follicle transition / primordial follicle activation” value is recorded as “suppress the primordial-to-primary follicle transition”. In addition, the “follicles (stage not given; activation of primordial follicles inhibited)” value (0.5 mM AICAR (n=1), data not shown) worked out at 83.83±3.06%. In addition, where the note is “1 mM AICAR, four days”, the primary follicles worked out at 10.82±4.98%, the primordial follicles is on record as 86.02±5.84% and the secondary follicles was determined as 3.0±3.09%. Where the note is “AICAR 0.1-1 mM, four days”, the “health of growing follicles in treated ovaries” value is recorded as “growing follicles within the ovary tended to appear unhealthy; also recorded: too harsh for the growing follicles”. In addition, the Effect entry under setting [2] is reported as “promotes”. Further, the Effect result under setting [3] was “promotes”.
`CCOc1cc(C(C)(C)C)ccc1C1=N[C@@](C)(c2ccc(Cl)cc2)[C@@](C)(c2ccc(Cl)cc2)N1C(=O)N1CCN(CCCS(C)(=O)=O)CC1` [RO5045337, [(4S,5R)-2-(4-tert-butyl-2-ethoxyphenyl)-4,5-bis(4-chlorophenyl)-4,5-dimethylimidazol-1-yl]-[4-(3-methylsulfonylpropyl)piperazin-1-yl]methanone]: the Effect entry by setting is: (Table 1, marked (ongoing)) “promotes”; (Table 2, marked (ongoing)) “promotes”.
Take `c1cc(-c2cnn3cc(-c4ccc(OCCN5CCCCC5)cc4)cnc23)ccn1` [Dorsomorphin]: for the setting “5 μM dorsomorphin, four days”, the primary follicles came out at 12.78±2.23% and the secondary follicles is 15.87±3.06%. Besides, the primordial follicles (5 μM dorsomorphin, four days, own control contaminated, compared with control of another experiment) is 71.32±5.50%.
As to `CNC(=O)c1cc(Oc2ccc(NC(=O)Nc3ccc(Cl)c(C(F)(F)F)c3)cc2)ccn1` [BIIB022, 4-[4-[[4-chloro-3-(trifluoromethyl)phenyl]carbamoylamino]phenoxy]-N-methyl-pyridine-2-carboxamide], the Effect result reads like this: (Table 1, marked (ongoing)) “promotes”; (Table 2, marked (ongoing)) “promotes”.
On to `NC(=O)N[C@@H](CCC(=O)O)C(=O)O` [NCG, (2S)-2-(carbamoylamino)pentanedioic acid], for which the “effect on follicle distribution” value (10, 20 and 30 μM NCG, 96 hours) is given as “has the potential to activate primordial follicle distribution”. Also, the Effect result reads like this: under setting [2], “promotesfollicle”; under setting [3], “promotesfollicle”.
As for `COc1cc([C@@H]2c3cc4c(cc3[C@H](O)[C@H]3COC(=O)[C@@H]23)OCO4)cc(OC)c1OC` [Picropodophyllin, (5R,5aR,8aS,9R)-5-hydroxy-9-(3,4,5-trimethoxyphenyl)-5a,6,8a,9-tetrahydro-5H-[2]benzofuro[5,6-f][1,3]benzodioxol-8-one], the Effect result (Table 1, marked (ongoing)) was “promotes” and the Effect entry (Table 2, marked (ongoing)) was “promotes”.
`Cc1c(NC(=O)OC[C@@H]2COCCN2)cn2ncnc(Nc3ccc4c(cnn4Cc4cccc(F)c4)c3)c12` [BMS-599626, [(3S)-morpholin-3-yl]methyl N-[4-[[1-[(3-fluorophenyl)methyl]indazol-5-yl]amino]-5-methylpyrrolo[2,1-f][1,2,4]triazin-6-yl]carbamate]: the Effect result runs as follows: (Table 1, marked (ongoing)) “promotes”; (Table 2, marked (ongoing)) “promotes”.
`CC1(C)CCC2(CC1)N[C@@H](C(=O)N[C@@H]1CC[C@@H](C(N)=O)OC1)[C@H](c1ccnc(Cl)c1F)[C@]21C(=O)Nc2cc(Cl)ccc21.Cc1ccc(S(=O)(=O)O)cc1` [DS-3032b, L-Erythro-hexonamide, 2,6-anhydro-5-((((3′R,4'S,5′R)-6″-chloro-4′-(2-chloro-3-fluoro-4-pyridinyl)-1″,2″-dihydro-4,4-dimethyl-2″-oxodispiro(cyclohexane-1,2′-pyrrolidine-3′,3″-(3H)indol)-5′-yl)carbonyl)amino)-3,4,5-trideoxy-, 4-methylbenzenesulfon]: the Effect result (Table 1, marked (ongoing)) is listed as “promotes” and the Effect result (Table 2, marked (ongoing)) is listed as “promotes”.
As for `CN1CCC(=C2c3ccccc3CC(=O)c3sccc32)CC1` [Ketotifen, 4,9-dihydro-4-(1-methyl-4-piper-idylidende)-10H-benzo(4,5)cyclohepta(1,2,b)thiophen-10-one], the “effect on primordial-to-primary follicle transition / primordial follicle activation” value was “significantly more primordial follicles”. In addition, where the note is “85 nM Ketotifen, 96 hours”, the “less primary follicles than control” value is recorded as approximately 44%, the “less secondary follicles than control” value is reported as approximately 65% and the “more primordial follicles than control” value is recorded as “approximately 9%”. The Effect result under setting [2] is recorded as “inhibits follicle”. Also, the Effect result under setting [3] is given as “inhibits follicle”.
